# Results from PubChem BioAssay (NCI).
#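 96-well plates; 48 h exposure; 5 concentrations. Endpoints by linear interpolation between flanking doses. Not reached: highest tested concentration assigned. GI50 is the concentration that inhibits growth by half. At the TGI there is no net growth.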
# Key:
# Assay in all cases: NCI anticancer screen, dose series, 48 h
# [1] = test system: MCF7 breast
# [2] = test system: MDA-MB-231 breast
# [3] = test system: RXF 393 renal
# [4] = test system: MOLT-4 leukemia
# [5] = test system: MALME-3M melanoma
# [6] = test system: OVCAR-3 ovarian
# [7] = test system: HL-60(TB) leukemia
# [8] = test system: K-562 leukemia
# [9] = test system: SNB-75 CNS
# [10] = test system: CAKI-1 renal
# [11] = test system: HCT-15 colon
# [12] = test system: NCI-H226 lung
# [13] = test system: DU-145 prostate
# [14] = test system: HCT-116 colon
# [15] = test system: A498 renal
# [16] = test system: OVCAR-8 ovarian
# [17] = test system: U251 CNS
# [18] = test system: PC-3 prostate
# [19] = test system: BT-549 breast
# [20] = test system: SNB-19 CNS
# [21] = test system: HCC-2998 colon
# [22] = test system: HS 578T breast
# [23] = test system: SK-OV-3 ovarian
# [24] = test system: LOX IMVI melanoma
# [25] = test system: UACC-257 melanoma
# [26] = test system: MDA-MB-435
# [27] = test system: 786-0 renal
# [28] = test system: SK-MEL-28 melanoma
# [29] = test system: SR leukemia
# [30] = test system: CCRF-CEM leukemia
# [31] = test system: M14 melanoma
# [32] = test system: NCI-H522 lung
# [33] = test system: COLO 205 colon
# [34] = test system: SK-MEL-5 melanoma
# [35] = test system: T-47D breast
# [36] = test system: IGROV1 ovarian
# [37] = test system: HT29 colon
# [38] = test system: UO-31 renal
# [39] = test system: EKVX NSCLC
# [40] = test system: NCI-H23 lung
# [41] = test system: UACC-62 melanoma
# [42] = test system: HOP-92 NSCLC
# [43] = test system: SF-295 CNS
# [44] = test system: KM12 colon
# [45] = test system: SN12C renal
# [46] = test system: SF-268 CNS
# [47] = test system: MDA-MB-468 breast
# [48] = test system: TK-10 renal
# [49] = test system: HOP-62 NSCLC
# [50] = test system: RPMI-8226 leukemia
# [51] = test system: OVCAR-4 ovarian
# [52] = test system: SF-539 CNS
# [53] = test system: OVCAR-5 ovarian
# [54] = test system: SK-MEL-2 melanoma
compound,measurement,setting,value
CN1CCN(C(=O)CCN(C(=O)Oc2cc3c(c4ccccc24)[C@H](CCl)CN3C(=O)c2cc3cc(OCCCN4CCC4)ccc3[nH]2)[C@H]2CCSSC2)CC1,GI50,[1],0.0495 µM
same,TGI,[1],1.43 µM
same,GI50,[2],0.402 µM
same,TGI,[2],1.45 µM
same,GI50,[3],0.189 µM
same,TGI,[3],0.454 µM
same,GI50,[4],0.231 µM
same,TGI,[4],1.58 µM
same,GI50,[5],0.232 µM
same,TGI,[5],0.745 µM
same,GI50,[6],0.426 µM
same,TGI,[6],1.88 µM
same,GI50,[7],0.39 µM
same,TGI,[7],2.03 µM
same,GI50,[8],0.225 µM
same,TGI,[8],1.59 µM
same,GI50,[9],0.497 µM
same,TGI,[9],2.32 µM
same,GI50,[10],0.15 µM
same,TGI,[10],0.509 µM
same,GI50,[11],0.209 µM
same,TGI,[11],1.35 µM
same,GI50,[12],0.148 µM
same,TGI,[12],1.16 µM
same,GI50,[13],0.165 µM
same,TGI,[13],1.25 µM
same,GI50,[14],0.234 µM
same,TGI,[14],1.04 µM
same,GI50,[15],0.199 µM
same,TGI,[15],0.386 µM
same,GI50,[16],0.136 µM
same,TGI,[16],0.5 µM
same,GI50,[17],0.1 µM
same,TGI,[17],0.377 µM
same,GI50,[18],0.378 µM
same,TGI,[18],2.07 µM
same,GI50,[19],1.02 µM
same,TGI,[19],2.46 µM
same,GI50,[20],0.272 µM
same,TGI,[20],1.65 µM
same,GI50,[21],0.146 µM
same,TGI,[21],0.334 µM
same,GI50,[22],1.23 µM
same,TGI,[22],3.17 µM
same,GI50,[23],0.313 µM
same,TGI,[23],7.08 µM
same,GI50,[24],0.0855 µM
same,TGI,[24],0.314 µM
same,GI50,[25],0.378 µM
same,TGI,[25],1.81 µM
same,GI50,[26],0.285 µM
same,TGI,[26],1.17 µM
same,GI50,[27],0.33 µM
same,TGI,[27],1.14 µM
same,GI50,[28],0.208 µM
same,TGI,[28],0.502 µM
same,GI50,[29],0.0661 µM
same,TGI,[29],0.906 µM
same,GI50,[30],0.269 µM
same,TGI,[30],3.51 µM
same,GI50,[31],0.195 µM
same,TGI,[31],0.653 µM
same,GI50,[32],0.254 µM
same,TGI,[32],1.28 µM
same,GI50,[33],0.431 µM
same,TGI,[33],2.26 µM
same,GI50,[34],0.152 µM
same,TGI,[34],0.336 µM
same,GI50,[35],0.57 µM
same,TGI,[35],2.4 µM
same,GI50,[36],0.545 µM
same,TGI,[36],2.45 µM
same,GI50,[37],0.211 µM
same,TGI,[37],0.963 µM
same,GI50,[38],0.19 µM
same,TGI,[38],0.48 µM
same,GI50,[39],0.351 µM
same,TGI,[39],1.55 µM
same,GI50,[40],0.0657 µM
same,TGI,[40],0.211 µM
same,GI50,[41],0.115 µM
same,TGI,[41],0.294 µM
same,GI50,[42],0.997 µM
same,TGI,[42],3.64 µM
same,GI50,[43],0.107 µM
same,TGI,[43],0.291 µM
same,GI50,[44],0.308 µM
same,TGI,[44],1.51 µM
same,GI50,[45],0.527 µM
same,TGI,[45],9.02 µM
same,GI50,[46],0.281 µM
same,TGI,[46],1.63 µM
same,GI50,[47],0.148 µM
same,TGI,[47],0.442 µM
same,GI50,[48],1.56 µM
same,TGI,[48],3.57 µM
same,GI50,[49],0.146 µM
same,TGI,[49],0.678 µM
same,GI50,[50],0.57 µM
same,TGI,[50],3.87 µM
same,GI50,[51],1.36 µM
same,TGI,[51],2.78 µM
same,GI50,[52],0.325 µM
same,TGI,[52],1.2 µM
same,GI50,[53],0.39 µM
same,TGI,[53],1.39 µM
same,GI50,[54],0.345 µM
same,TGI,[54],1.06 µM
